Results as given in PMC8318587, “Structure-guided microbial targeting of antistaphylococcal prodrugs” (eLife, 2021).
“Also recorded” adds a separate entry of the source.

Assays:
[1] = target: T1, SaFrmB (Staphylococcus aureus, UniProt A0A0H3KFB7); assay: Esterase substrate specificity, fluorogenic SAR library kinetics; format: biochemical; conditions: for In vitro activity (catalytic efficiency) for FrmB, in words: fluorogenic ester substrate; for Km: SaFrmB 15 µg/mL, pH 7.5, 37°C
T1 construct: made in house; host or cells: E. coli BL21 (DE3)
T1 sequence (A0A0H3KFB7 1-253): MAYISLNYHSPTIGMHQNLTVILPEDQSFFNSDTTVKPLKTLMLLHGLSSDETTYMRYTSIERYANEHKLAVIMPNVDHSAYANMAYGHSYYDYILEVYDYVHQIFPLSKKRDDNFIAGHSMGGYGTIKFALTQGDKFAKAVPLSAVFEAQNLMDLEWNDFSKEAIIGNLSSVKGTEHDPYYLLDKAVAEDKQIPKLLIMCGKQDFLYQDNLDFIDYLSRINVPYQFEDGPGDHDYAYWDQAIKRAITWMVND
Method: (§1) Kinetic measurements were performed according to [White et al., 2018] with minor variation. Lyophilized human and mouse sera were resuspended according to manufacturer instructions in highly pure, filtered water at protein concentrations of 85 mg/mL and 70 mg/mL, respectively. One milliliter of resuspended serum was added to a 24 mL mastermix for a final concentration of 31.25 mM Tris pH 7.5, 312.5 mM NaCl, 1.25 mM MgCl2, 12.5% glycerol, and 3.4 mg/mL or 2.8 mg/mL protein for human and mouse serum, respectively. For purified proteins, 5 mL of a 75 µg/mL stock was added to yield a 20 mL mastermix containing 31.25 mM Tris pH 7.5, 312.5 mM NaCl, 1.25 mM MgCl2, 12.5% glycerol, and 18.75 µg/mL protein. Mastermix was stored on ice when not in use. Twenty microliters of mastermix was transferred to a black, 96-well half area microplate (Corning, CLS3993) and prewarmed at 37°C. Fluorogenic substrates were prepared as 10 mM stock solutions in 100% DMSO and were diluted in water to a starting concentration of 500 µM. Enzyme catalyzed substrate hydrolysis was initiated by addition of 5 µL substrate dilution in technical duplicate to the prewarmed serum or protein solution. Final assay concentrations were as follows: 25 mM Tris pH 7.5, 250 mM NaCl, 1 mM MgCl2, 10% glycerol, and protein at a concentration of 2.72 mg/mL (human serum), 2.24 mg/mL (mouse serum), or 15 µg/mL (FrmB, GloB). The resulting change in fluorescence (λex = 485 nm, λem = 520 nm) was followed for 15 min at 37°C, collecting data every 30 s on a FLUOstar Omega microplate reader (BMG Labtech). Fluorescence measurements were converted to molar concentrations using a fluorescein standard curve (2.5 nmol–0.6 pmol). The initial rates of reaction were measured three independent times with two technical replicates per measurement and fit to a line using GraphPad Prism (GraphPad Software, La Jolla, CA). Initial rates of reaction were plotted versus the concentration of substrate and fit to a standard Michaelis–Menten equation (v = Vmax[S]/(Km + [S])), yielding estimates of Vmax and Km. Values for kcat and kcat/Km were calculated based on amount of enzyme added when purified enzymes were used.

[2] = target: T2, SaGloB (Staphylococcus aureus, UniProt P0DY75); assay: as above; format: biochemical; conditions: for kcat/kuncat / Km: SaGloB; for kcat/kuncat: normalised to uncatalysed hydrolysis rate; for In vitro activity (catalytic efficiency) for GloB, in words / Km: fluorogenic ester substrate
T2 sequence (P0DY75 1-207): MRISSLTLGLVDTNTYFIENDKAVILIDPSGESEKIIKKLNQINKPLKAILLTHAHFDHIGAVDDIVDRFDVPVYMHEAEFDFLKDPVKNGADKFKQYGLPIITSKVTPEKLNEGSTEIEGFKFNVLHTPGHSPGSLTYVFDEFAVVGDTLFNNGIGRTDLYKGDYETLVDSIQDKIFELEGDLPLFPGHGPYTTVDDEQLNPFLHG
Method: as §1

[3] = test system: human sera; assay: Esterase substrate specificity, fluorogenic SAR library kinetics in serum; format: in vitro ADME
Method: as §1

[4] = test system: mouse sera; assay: as above; format: in vitro ADME
Method: as §1

[5] = test system: S. aureus; assay: Microfluidics live cell imaging of pro-fluorescent substrate activation; format: cell-based, Staphylococcus aureus; conditions: 10 µM pro-fluorescent substrate, 37°C; for Intracellular activation (fluorescence) in live S. aureus, in words: 30 min of observation
Method: Overnight cultures of S. aureus were grown in LB media, back diluted 1:500, and grown to early exponential phase (OD600 0.1–0.15), then washed in 1× PBS, and loaded on a bacterial CellASIC ONIX2 microfluidic plate. Prior to cell loading, the microfluidics plate lines were flushed with 1× PBS + 1% DMSO or 10 µM fluorescent pro-substrate in 1× PBS + 1% DMSO, and the plate was preincubated at 37°C. The microfluidics plate was loaded onto a Nikon Ti-E inverted microscope (Nikon Instruments, Inc) equipped with a 100× Plan N (N.A. = 1.45) Ph3 objective, SOLA SE Light Engine (Lumencor), heated control chamber (OKO Labs), and an ORCA-Flash4.0 sCMOS camera (Hammamatsu Photonics). The GFP filter set was purchased from Chroma Technology Corporation. Cells were loaded into the chamber until a single field of view contained 50–150 cells or cell clusters. […] Images were acquired every two min for a total of 44 min, and all experiments were undertaken at 37°C. The phase-contrast exposure time was kept constant at 200 ms, and the fluorescent channel exposure time was kept constant at 500 ms. For fluorescent images, the gain remained constant across all experiments. Image capture and analysis was performed using Nikon Elements Advanced Research software. Individual cells or clusters of cells were auto detected in the fluorescent channel using the intrinsic background fluorescence of each cell. […] Fluorescent intensity for each individual cell or cluster of cells was measured through the duration of the experiment and normalized to the area of the identified cell to yield the mean fluorescent intensity. Background cell autofluorescence was corrected by subtracting the average fluorescence across all identified objects from t = 0 through t = 10. Each experiment was performed in duplicate, with >50 individual cells or clusters analyzed in each experiment.

[6] = target: T3, FrmB (Staphylococcus aureus, UniProt A0A0H3KFB7); assay: 4-Nitrophenyl ester substrate activity assay; format: biochemical; conditions: 1 µM protein, 1 mM substrate, 37°C, A405
T3 construct: made in house; host or cells: E. coli BL21 (DE3)
Method: (§2) 4-Nitrophenyl substrate-specific activity was determined in 50 µL reactions containing 25 mM Tris pH 7.5, 250 mM NaCl, 1 mM MnCl2, 10% glycerol, 1 µM protein, and 1 mM 4-nitrophenyl substrate. The tested substrates, 4-nitrophenyl acetate (Sigma, N8130), 4-nitrophenyl butyrate (Sigma N9876), and 4-nitrophenyl trimethylacetate (Sigma 135046), were resuspended in acetonitrile at 100 mM. Reactions without 4-nitrophenyl substrate were preincubated at 37°C for 10 min prior to assay initiation via substrate addition. Conversion of 4-nitrophenyl substrates to 4-nitrophenol was tracked photometrically at 37°C and A405nm. Experiments were performed in triplicate with technical duplicates.

[7] = test system: GloB; assay: 4-Nitrophenyl ester substrate activity assay; format: biochemical, Staphylococcus aureus; conditions: 1 µM protein, 1 mM substrate, 37°C, A405
Method: as §2

[8] = target: T1, SaFrmB; assay: Glyoxalase II activity assay (DTNB coupled); format: biochemical; conditions: 1 mM substrate, 37°C, 412 nm
Method: (§3) Glyoxalase II activity was assessed as previously with minor changes ([Mikati et al., 2020]; [Stamp et al., 2010]). Briefly, reactions were mixed to form a final concentration of 25 mM Tris pH 7.5, 250 mM NaCl, 1 mM MnCl2, 10% glycerol, 200 µM 5,5’-dithiobis(2-nitrobenzoic acid) (DTNB, Sigma D8130), 1 mM D-lactoylglutathione (Sigma L7140), and 0.15–0.63 µg protein (130–550 nM GloB, 100–430 nM FrmB). Protein concentrations were varied to ensure the reaction was linear across protein concentrations. Reactions without D-lactoylglutathione were pre-incubated at 37°C for 10 min prior to assay initiation with the addition of substrate. Release of glutathione from D-lactoylglutathione was quantified spectrophotometrically at 37°C and 412 nm through the conversion of DTNB to TNB. Experiments were performed in triplicate with technical duplicates.

[9] = target: T2, SaGloB; assay: Glyoxalase II activity assay (DTNB coupled); format: biochemical; conditions: 1 mM substrate, 37°C, 412 nm
Method: as §3

Structure (SMILES) | In vitro activity (catalytic efficiency) for FrmB, in words [1] | In vitro activity (catalytic efficiency) for GloB, in words [2] | Km [3] [µM] | Km [4] [µM] | Km [1] [µM] | Intracellular activation (fluorescence) in live S. aureus, in words [5] | Hydrolysis of 4-nitrophenyl ester by FrmB, in words [6] | Hydrolysis of 4-nitrophenyl ester by GloB, in words [7] | other results
COCC(=O)OCOc1ccc2c(c1)Oc1cc(OCOC(=O)COC)ccc1C21OC(=O)c2ccccc21 [1O] | high activity; also recorded: highest catalytic efficiency substrate | high activity; also recorded: highest catalytic efficiency substrate | 64.1 | > 50 | – | – | – | – | kcat/kuncat ([1]; SaFrmB): 1.34 103; kcat/kuncat [2]: 38.6 103; Vmax [3]: 68.6 pmol*min-1*mg sera-1; Time to intracellular fluorescence saturation ([5]; images every 2 min): < 2 min
CCCCCC(=O)OCOc1ccc2c(c1)Oc1cc(OCOC(=O)CCCCC)ccc1C21OC(=O)c2ccccc21 [3C] | moderate activity | moderate activity | > 50 | > 50 | > 50 | slowly activates over the duration of the experiment | – | – | Km [2]: > 50 µM
CC(=O)Oc1ccc([N+](=O)[O-])cc1 [4-nitrophenyl acetate] | – | – | – | – | – | – | modest activity | no detectable activity | –
CCCC(=O)Oc1ccc([N+](=O)[O-])cc1 [4-nitrophenyl butyrate] | – | – | – | – | – | – | modest activity | no detectable activity | –
CC(C)(C)C(=O)Oc1ccc([N+](=O)[O-])cc1 [4-nitrophenyl trimethylacetate] | – | – | – | – | – | – | no activity | no detectable activity | –
CCOCCC(=O)OCOc1ccc2c(c1)Oc1cc(OCOC(=O)CCOCC)ccc1C21OC(=O)c2ccccc21 [5O] | poor activity | moderate activity | 35.4 | > 50 | > 50 | never appreciably activates | – | – | kcat/kuncat [2]: 17.0 103; Vmax [3]: 2.25 pmol*min-1*mg sera-1
CCC(CC)C(=O)OCOc1ccc2c(c1)Oc1cc(OCOC(=O)C(CC)CC)ccc1C21OC(=O)c2ccccc21 [9C] | poor activity | poor activity | > 50 | 12.3 | > 50 | never appreciably activates | – | – | Km [2]: > 50 µM; Vmax [4]: 3.18 pmol*min-1*mg sera-1
CC(O)C(=O)SCC(NC(=O)CCC(N)C(=O)O)C(=O)NCC(=O)O (stereo not drawn) [S-lactoylglutathione] | – | – | – | – | – | – | – | – | Glyoxalase II activity (hydrolysis of substrate), in words [8]: lacks appreciable glyoxalase activity; Glyoxalase II activity (hydrolysis of substrate), in words [9]: specific activity comparable to previously characterized microbial type II glyoxalases
